“And” between values parts separate entries of the source, which are not always exact repeats. Equal entries are not always repeated. “Also recorded” adds a separate entry of the source.
Tests used:
[1] = Redness/irritation index of topical formulations on human volunteers (Example B); details: for Redness/irritation index, Mean: 7 subjects
Experimental: In these experiments data were collected from seven human volunteers concerning the effects of topical dermal clearance enhancers. […] Observations were recorded at 10, 20, and 30 minute intervals. The following redness/irritation index was used to categorize vasodilation/irritation:
0=no redness, i.e., erythema;
W=Wheal irritation, i.e., edemic core surrounded by an erythemic ring; and
The presence of vasodilation was determined by degree of redness of the skin. Wheal irritation was signified by the presence of an erythemic ring surrounding an upraised pale center. Whitening was denoted by a pale area with no upraising or redness.

[2] = test system: elevated heart rate; experiment: Additional in vivo dog experiments: dermal clearance enhancer pretreatment then arbutamine TDI (Example C); design: species or system labrador dogs
Experimental: Additional experiments were performed to study the effect of certain compositions on the offset time and dermal clearance in dogs.
In these experiments, the formulation to be tested was applied either topically or by transdermal iontophoresis (TDI) as described below.
Six labrador dogs (20 to 30 kg) were trained to lie quietly on a table. Before each experiment, three ECG electrodes (one lead) were applied on shaved areas of the back (near the front legs) to obtain the heart rate. The outer hind leg area (either right or left) was shaved prior to each experiment, with care taken not to cut or visibly damage the skin. The area was cleaned with soap and water and the skin was then […] using an alcohol swab followed by skin preparation with 3M One-Step-Prep™ tape.
Each vasodilator that was delivered by TDI used a 1.8 cm^2 electrode (Graphic Controls, Buffalo, N.Y.) containing the vasodilator in a gel at the concentrations listed in experimental methods section. In all experiments, an indifferent electrode containing a phosphate-buffered-saline gel was applied to the skin in conjunction with the electrode containing the vasodilator. Each vasodilator tested was applied for 10 minutes using a current of 0.6 mA/cm^2. During this time the heart rate was continuously recorded (at 5 second intervals) with the ESA Research System. The delivery electrodes were then removed, and any excess gel adhering to the skin was gently removed using a tissue.
Each topically applied vasodilator was applied to the skin in a volume of approximately 0.25 ml. The agent was allowed to absorb into the skin, during which time the heart rate was continuously recorded for 10 minutes using the ESA Research System.
To test if heat alone would produce sufficient vasodilation, a 60° C. hot pack was applied to the skin 10 minutes prior to drug delivery, during which time the heat rate was continuously recorded by the ESA System. Once drug delivery electrodes were applied, the heat pack was reheated and placed on top of them for the duration of the study.
The purpose of this treatment was to produce an elevated heart rate response of at least 40 beats-per-minute above baseline lasting for at least 30 minutes.
^1/ The dose (ITCA) was calculated by multiplying the applied current density (mA/cm^2) by the duration of delivery (minutes) and the drug concentration (%) and the area of the electrode (cm^2). […] The units of ITCA are mA.minutes.
The important variables for this analysis are:
1) delay between time when drug administration was stopped and start of decline in heart rate;
2) the time (minutes) to reach successive percent levels (i.e. 10, 20, 30, 40, and 50% decline) from the point of maximum change in heart rate^2.
3) the half-life (minutes) of the heart rate decline obtained from an exponential fit of the offset slope.
A combination of over-the-counter (OTC) and proprietary formulations were selected for comparison. […] Two dogs received each treatment at least one time.
The six dogs are identified in the table as BA, BB, BO, MI, PO and SA, followed by the experimental identification number. These dogs received control (no pretreatment) and five DCE pretreatment regimens.

[3] = test system: elevated heart rate; experiment: In vivo dog experiments: heart rate offset after iontophoretic ESA drug with pretreatment (Example A); design: species or system labrador dogs; details: for Offset Slope Component (0-5) min: 0-5 min after heart rate begins to decline; for Offset Slope Component (5-10) min: 5-10 min after decline begins; for Offset Slope Component (10-30) min: 10-30 min after decline begins; for Change in Heart Rate (peak minus baseline) / Peak Heart Rate: Table II; for Onset Slope: baseline at onset time to peak heart rate; for Offset time: drug delivery stopped until within 20 bpm of baseline; for Offset Slope: drug shut-off to 20 bpm above baseline; for Delay: drug shut-off to start of heart rate decline; for t 1/2 of elevated heart rate decay: exponential fit; for Onset time: start of delivery to start of increase in heart rate; for Time Start Decline: time when elevated heart rate began to decline
[4] = Table VII, single dog run, listed as 1% Tolazoline

With `COC(=O)c1ccccc1O` [Methyl Salicylate, Methyl salicylate] the “Redness/irritation index, Mean” value ([1]; 10 min) was 0, the Redness/irritation index ([1]; 10 min, subject CV) was 0 and the Redness/irritation index ([1]; 10 min, subject four) was 0. It also gave a Redness/irritation index ([1]; 10 min, subject one) of 0, a Redness/irritation index ([1]; 10 min, subject three) of 0 and a Redness/irritation index ([1]; 10 min, subject two) of 0. The “Redness/irritation index, Mean” value ([1]; 20 min) was 0, the Redness/irritation index ([1]; 20 min, subject CV) was 0 and the Redness/irritation index ([1]; 20 min, subject three) was 0. The Redness/irritation index ([1]; 20 min, subject two) was 0, the “Redness/irritation index, Mean” value ([1]; 30 min) was 0 and the Redness/irritation index ([1]; 30 min, subject CV) was 0. The Redness/irritation index ([1]; 30 min, subject three) was 0 and the Redness/irritation index ([1]; 30 min, subject two) was 0.
In the case of `c1ccc(CC2=NCCN2)cc1` [Tolazoline], the “CHANGE IN HEART RATE, Mean” value ([2]; Table VII, mean of runs) was 80.64 BPM, the “DELAY TIME, Mean” value ([2]; Table VII, mean of runs) was 2.76 min and the “HALF-LIFE, Mean” value ([2]; Table VII, mean of runs) was 16.35 min. For the same molecule, the “TIME TO REACH 10% DECLINE IN HEART RATE, Mean” value ([2]; Table VII, mean of runs) was 6.44 min, the “TIME TO REACH 20% DECLINE IN HEART RATE, Mean” value ([2]; Table VII, mean of runs) was 9.83 min and the “TIME TO REACH 30% DECLINE IN HEART RATE, Mean” value ([2]; Table VII, mean of runs) was 13.40 min. The “TIME TO REACH 40% DECLINE IN HEART RATE, Mean” value ([2]; Table VII, mean of runs) was 18.38 min, the “TIME TO REACH 50% DECLINE IN HEART RATE, Mean” value ([2]; Table VII, mean of runs) was 27.16 min and the “CHANGE IN HEART RATE” value [2, 4] was 53.00 BPM and 101.93 BPM and 80.67 BPM and 84.26 BPM and 93.54 BPM and 69.23 BPM and 92.75 BPM and 67.50 BPM and 97.31 BPM and 84.22 BPM and 64.17 BPM and 87.58 BPM and 72.15 BPM. For the same molecule, the “DELAY TIME” value [2, 4] was 2.00 min and 5.28 min and 0.67 min and 1.33 min and 1.77 min and 5.27 min and 1.81 min and 0.39 min and 0.00 min and 0.22 min and 4.43 min and 8.02 min and 4.65 min, the “TIME TO REACH 10% DECLINE IN HEART RATE” value [2, 4] was 7.24 min and 9.14 min and 2.56 min and 9.27 min and 4.71 min and 8.58 min and 4.56 min and 4.31 min and 2.17 min and 4.63 min and 6.46 min and 9.64 min and 10.49 min and the “TIME TO REACH 20% DECLINE IN HEART RATE” value [2, 4] was 8.85 min and 12.89 min and 4.46 min and 15.49 min and 7.55 min and 12.60 min and 10.28 min and 12.20 min and 4.12 min and 7.66 min and 8.49 min and 11.25 min and 11.90 min. The “TIME TO REACH 30% DECLINE IN HEART RATE” value [2, 4] was 10.45 min and 16.35 min and 6.18 min and 20.96 min and 10.17 min and 19.78 min and 19.70 min and 14.89 min and 7.47 min and 11.55 min and 10.55 min and 12.87 min and 13.30 min, the “TIME TO REACH 40% DECLINE IN HEART RATE” value [2, 4] was 12.29 min and 19.40 min and 7.61 min and 26.43 min and 14.58 min and 30.11 min and 28.29 min and 17.58 min and 12.20 min and 26.06 min and 12.63 min and 16.89 min and 14.83 min and the “TIME TO REACH 50% DECLINE IN HEART RATE” value [2, 4] was 19.86 min and 22.45 min and 9.04 min and 31.33 min and 21.82 min and 35.27 min and 60.00 min and 20.27 min and 19.92 min and 66.00 min and 14.68 min and 20.44 min and 18.05 min. The HALF-LIFE ([2]; heart rate decline, Table VII, single dog run, listed as 1% Tolazoline) was 5.75 min and 10.87 min and 20.60 min and 12.81 min and 18.60 min and 18.02 min and 11.30 min, the “response in screening study” value ([2]; two dogs per treatment) was “most pronounced response” and the “Offset Slope Component (0-5) min” value ([3]; listed as 5) was -0.90 beats per minute per minute. The “Offset Slope Component (0-5) min” value ([3]; listed as 6) was -1.40 beats per minute per minute, the “Offset Slope Component (5-10) min” value ([3]; listed as 5) was -3.30 beats per minute per minute and the “Offset Slope Component (5-10) min” value ([3]; listed as 6) was -3.90 beats per minute per minute. For the same molecule, the “Percent decline in heart rate, ranking” value ([3]; 10-20 minute interval, FIG. 1) was “greatest percent decline”, the “Offset Slope Component (10-30) min” value ([3]; listed as 5) was -0.70 beats per minute per minute and the “Offset Slope Component (10-30) min” value ([3]; listed as 6) was -0.58 beats per minute per minute. The “Delay to onset of heart rate decline, ranking” value ([3]; FIG. 2) was “shortest delay”, the “Heart rate decay half-life, ranking” value ([3]; FIG. 2) was “relatively short half-lives” and the “Reduction in heart rate offset” value ([3]; FIGS. 3 and 4) was “dramatic reduction in heart rate offset”. The “Change in Heart Rate (peak minus baseline)” value ([3]; listed as 5) was 53 bpm, the “Peak Heart Rate” value ([3]; listed as 5) was 119 bpm and the “Change in Heart Rate (peak minus baseline)” value ([3]; listed as 6) was 33 bpm. For the same molecule, the “Peak Heart Rate” value ([3]; listed as 6) was 121 bpm, the “Total time (startup) thru offset plateau: w/in 20 bpm of baseline” value ([3]; Table IV) was 34 min and the “Total time (startup) thru offset plateau: reached baseline” value ([3]; Table IV, listed as 5) was 60 min. The “Total time (startup) thru offset plateau: reached baseline” value ([3]; Table IV, listed as 6) was 30 min, the “Onset Slope” value ([3]; listed as 5) was 4.70 beats per minute per minute and the “Onset Slope” value ([3]; listed as 6) was 3.50 beats per minute per minute. For the same molecule, the Offset time ([3]; listed as 5) was 34.00 min, the Offset time ([3]; listed as 6) was 8.00 min and the “Offset Slope” value ([3]; listed as 5) was -1.00 beats per minute per minute. For the same molecule, the “Offset Slope” value ([3]; listed as 6) was -3.20 beats per minute per minute, the Delay ([3]; listed as 5) was 2.00 min and the Delay ([3]; listed as 6) was 4.00 min. For the same molecule, the “t 1/2 of elevated heart rate decay” value ([3]; Table IV, listed as 5) was 14.06 min, the “t 1/2 of elevated heart rate decay” value ([3]; Table IV, listed as 6) was 6.77 min and the “Reduction in offset time” value ([3]; iontophoretic pre-delivery) was “found effective when pre-delivered iontophoretically; also recorded: significant reduction in offset time”. For the same molecule, the Onset time ([3]; listed as 5) was 10.00 min, the Onset time ([3]; listed as 6) was 7.00 min and the “Time Start Decline” value ([3]; listed as 5) was 20.00 min. The “Time Start Decline” value ([3]; listed as 6) was 21.00 min and the Dermal clearance enhancement ([3]; topical pretreatment) was “no measurable dermal clearance enhancement”.

Reference: patent US5383848A, “Iontophoretic administration of drugs” (Gensia, Inc., priority 1991, dated 1995)
